{"source": "patent US10398786B2", "about": "“Therapeutic gene cocktail for heart regeneration” (Academia Sinica, priority 2015, dated 2019)", "system": "adult CMs of OSKM transgenic mice", "experiment": "doxycycline injection into OSKM transgenic mice, adult CMs isolated after two days", "assay_type": "in vivo", "conditions": "two days after doxycycline treatment", "description": "Reverse transcription were completed following the protocol of SuperScript III Reverse-Transcriptase kit (Life Technology). SYBR Green Real-Time PCR master mixes were used to quantify each gene expression, and GAPDH were performed for normalization.\nAdult ventricular CMs were isolated from male mice on a Langendorff apparatus. The hearts were removed from the anaesthetized mice after heparinization for 10 mins, and then were cannulated for retrograde perfusion with Ca^2+-free Tyrode solution (NaCl 120.4 mmol/L, KCl 14.7 mmol/L, KH2PO4 0.6 mmol/L, Na2HPO4 0.6 mmol/L, MgSO4 1.2 mmol/L, HEPES 1.2 mmol/L, NaHCO3 4.6 mmol/L, Taurine 30 mmol/L, BDM 10 mmol/L, Glucose 5.5 mmol/L).\nAfter 3-minutes of perfusion, the solution mixed with Ca^2+-free Tyrode solution supplemented with collagenase B (0.4 mg/g body weight, Roche), collagenase D (0.3 mg/g body weight, Roche) and protease type XIV (0.05 mg/g body weight, Sigma-Aldrich) were used to digest the hearts. After digestion, the ventricles were cut from the cannula and teased into small pieces in the digestion solution neutralized by the Ca^2+-free Tyrode solution containing 10% FBS. Adult CMs were dissociated from the digested tissues by gentle pipetting and collected after removing the un-digested tissues by filtering through a nylon mesh of 250 μm pore size. […]"}
{"smiles": "C[C@H]1c2cccc(O)c2C(=O)C2=C(O)[C@]3(O)C(=O)C(C(N)=O)=C(O)[C@@H](N(C)C)[C@@H]3[C@@H](O)[C@@H]21", "note": "[doxycycline]", "values": [{"measurement": "H3P+ population of adult CMs relative to control", "result": 2, "unit": "×"}]}
